{"source": "patent US5756511A", "about": "“Method for treating symptoms of a neurodegenerative condition” (Cell Therapeutics, Inc., priority 1995, dated 1998)"}
{"tested_on": "endogenous APP", "assay": "Western Blot of endogenous APP in culture supernatants of SH-SY5Y cells", "assay_type": "cell-based", "conditions": "SH-SY5Y incubated 18 hours with 5 nM human TNFA and increasing concentrations of compound", "protocol": "This Example illustrates the effect of representative compounds nos. 2576, 2583, 3501, 3577, 4522, 4533, 4535 and 4537 used in the inventive method on endogenous APP expression.\nCell cultures were prepared as in Example 1 using SH-SY5Y human neuroblastoma cells. Culture supernatants from SH-SY5Y cells incubated for 18 hours with 5 nM human TNFA and increasing concentrations of representative compounds identified above were separated on a 4-20% SDS-polyacrylamide gel and transferred to nitrocellulose. The nitrocellulose filter was probed with anti-APP antibody (Boehringer Mannheim, Indpls, Ind.), and the results visualized by Enhanced Chemiluminecence (Amersham Life Sciences, Arlington Heights, Ill.)."}
{"smiles": "CCCCCCCCNCC(O)CCCCCCCCCn1c(=O)c2c(ncn2C)n(C)c1=O", "note": "(stereo not drawn) [Compound 2576]", "inhibition of expression of endogenous APP (FIG. 3)": "inhibition of APP expression, in a dose-dependent manner"}
{"smiles": "COc1cc(CNCC(O)CCCCCCCCCn2c(=O)c3c(ncn3C)n(C)c2=O)cc(OC)c1OC", "note": "(stereo not drawn) [Compound 3501]", "inhibition of expression of endogenous APP (FIG. 3)": "inhibition of APP expression, in a dose-dependent manner"}
{"smiles": "COc1cc(CNC(CO)CCCCCCCCCn2c(=O)c3c(ncn3C)n(C)c2=O)cc(OC)c1OC", "note": "(stereo not drawn) [Compound 4522]", "inhibition of expression of endogenous APP (FIG. 3)": "inhibition of APP expression, in a dose-dependent manner"}
{"smiles": "CCCCCCCCN(CC(CCCCCCCCCn1c(=O)c2c(ncn2C)n(C)c1=O)OC(C)=O)C(C)=O", "note": "(stereo not drawn) [Compound 4537]", "inhibition of expression of endogenous APP (FIG. 3)": "inhibition of APP expression, in a dose-dependent manner"}
{"smiles": "COc1cc(NC(=O)CCCCCCCCCCn2c(=O)c3c(ncn3C)n(C)c2=O)cc(OC)c1OC", "note": "[Compound 4535]", "inhibition of expression of endogenous APP (FIG. 3)": "inhibition of APP expression, in a dose-dependent manner"}
{"smiles": "CCCCCCCCCCNCC(O)CCCCCCCCCn1c(=O)c2c(ncn2C)n(C)c1=O", "note": "(stereo not drawn) [Compound 2583]", "inhibition of expression of endogenous APP (FIG. 3)": "inhibition of APP expression, in a dose-dependent manner"}
{"smiles": "Cn1cnc2c1c(=O)n(CCCCCCCCCCC(=O)NCc1ccc3c(c1)OCO3)c(=O)n2C", "note": "[Compound 4533]", "inhibition of expression of endogenous APP (FIG. 3)": "inhibition of APP expression, in a dose-dependent manner"}
{"smiles": "COc1cc(CNC(=O)CCCCCCCCCCn2c(=O)c3c(ncn3C)n(C)c2=O)cc(OC)c1OC", "note": "[Compound 3577]", "inhibition of expression of endogenous APP (FIG. 3)": "inhibition of APP expression, in a dose-dependent manner"}
{"tested_on": "human amyloid precursor protein (APP) promoter", "assay": "APP promoter-alkaline phosphatase (pHAPPro. 1) reporter assay in transfected SH-SY5Y cells stimulated with hTNFα", "assay_type": "cell-based", "conditions": "SH-SY5Y transfected with pHAPPro. 1; 1 nM hTNFα; increasing concentrations of agent", "protocol": "This example is an in vitro assay confirming activity of an ability of representative agents to inhibit APP synthesis by effecting the level of alkaline phosphatase in the culture medium of human neuroblastoma cells, SH-SY5Y (Beidler et al., 1978), expression of which is controlled by a human amyloid precursor protein (APP) promoter.\nThe SH-SY5Y were transfected with the promoter-alkaline phosphatase reporter gene construct pHAPPro. The transfected cells were prepared as follows:\nA DNA fragment comprising nucleotide pairs -660 to +20 of the human APP promoter (Salbaum et al. 1988) was isolate by polymerase chain reaction using human placental DNA as a template. Xba I and ASP718 restriction endonuclease recognition sites were incorporated during amplification to facilitate subcloning upstream of an alkaline phosphatase reporter gene, forming the plasmid pHAPPro. 1, represented in FIG. 1. SH-SY5Y were subsequently transfected with pHAPPro. 1.\nComparing results obtained in this assay to a standard based on alkaline phosphatase expression controlled by a human phosphoglycerol kinase (PGK) promoter, relative to any cytotoxic effects an agent confirms therapeutic efficacy in the inventive method.\nIn all assays, controls were done in triplicate. Control assays specifically included assays using: 1) unstimulated cells; 2) cells stimulated with 1 nM hTNFαalone; 3) cells stimulated with 1 nM hTNFα and increasing concentrations of agent, as tested for all representative agents; 4) cells stimulated with 1 nM hTNFα and increasing concentrations of vehicle (100% ethanol), corresponding to vehicle concentrations in test agent preparations.\nSubsequent validation of all results included repeating tests with an expanded dose range. Results obtained were compared to an agent's inhibition of constituitive promoter for the phosphoglycerol kinase gene and endogenous amyloid precursor protein expression in neuroblastoma cells\nSH-SY5Y cells, prepared above, were plated into wells of a 96-well dish at a density of 20,000 cells per well in […] AIM V medium (Gibco/BRL, Gaithersburg, Md.: CAT# 21021-019). Dishes were incubated at 5% CO2 and 37° C. for 12 to 24 hours. […]\nCulture medium […] from each well was transferred to a corresponding well of a 96-well ELISA dish and […] 1× SEAP (0.5M diethanolamine (pH 9.8); 0.25 mM MgCl2; 0.01 mM ZnSO4; 10 mM L-homoarginine; 1 mM para-nitrophenyphosphate, Berger et al., 1988.), prepared above, was added to each well. The plates were incubated 10 minutes in 5% CO2 and 37° C., after which the kinetic change in absorbance at 405 nm was measured on a BIOTEK plate reader.\nAll data were imported into plotting software for analysis. Triplicate data points were averaged and standard error (from mean) was calculated using accepted standards. […]"}
{"smiles": "COc1cc(CNCC(O)CCCCCCCCCn2c(=O)c3c(ncn3C)n(C)c2=O)cc(OC)c1OC", "note": "(stereo not drawn) [Compound 3501]", "inhibition of APP expression (FIG. 2)": "inhibit APP expression in a dose-dependent fashion"}
{"smiles": "COc1cc(CNC(CO)CCCCCCCCCn2c(=O)c3c(ncn3C)n(C)c2=O)cc(OC)c1OC", "note": "(stereo not drawn) [Compound 4522]", "inhibition of APP expression (FIG. 2)": "inhibit APP expression in a dose-dependent fashion"}
{"smiles": "CCCCCCCCN(CC(CCCCCCCCCn1c(=O)c2c(ncn2C)n(C)c1=O)OC(C)=O)C(C)=O", "note": "(stereo not drawn) [Compound 4537]", "inhibition of APP expression (FIG. 2)": "inhibit APP expression in a dose-dependent fashion"}
{"smiles": "COc1cc(CNC(=O)CCCCCCCCCCn2c(=O)c3c(ncn3C)n(C)c2=O)cc(OC)c1OC", "note": "[Compound 3577]", "inhibition of APP expression (FIG. 2)": "inhibit APP expression in a dose-dependent fashion"}
